Measurements reported in EP1137645B1, “ALPHA-METHYLBENZYL-CONTAINING THIOUREA INHIBITORS OF HERPES VIRUSES CONTAINING A […] GROUP” (Wyeth, priority 1998, dated 2000).
≈ marks a conversion by molar mass, not a printed value. Like-named read-outs stand apart in the source and are kept apart here.

Assays:
[1] = system: HSV- I; test: HSV antiviral (ELISA) assay; assay type: cell-based; details: read-out: IC50 (ug/ml) HSV
Protocol: Vero cells (ATCC #CCL-81) are plated on 96-well tissue culture plates at 3.5x10^4 cells per 100µl tissue culture DMEM (Dulbecco's modified Eagle media) supplemented with 2% fetal bovine serum (FBS) in each well. After overnight incubation @ 37°C (in 5% CO2) and 30 minutes prior to infection with HSV- I (multiplicity of infection equal to 0.006), cells are either untreated, or treated with test compound (multiple concentrations) or reference standard drug control. After approximately 24 hours post-infection incubation @ 37°C (in 5% CO2), cells are fixed for ELISA assay. The primary antibody is murine anti-HSV glycoprotein D monoclonal primary antibody and the secondary antibody is goat anti-mouse IgG linked to β-galactosidase. Thus the extent of viral replication is determined by assessing β-galactosidase activity by quantifying the generation of the 4-methyl umbelliferone fluorescent cleavage product after addition of the methyl umbelliferyl-β-D-galactoside (Sigma #M1633) substrate on a microfluorimeter (365nm for excitation and 450nm for emission). Antiviral activity (IC50) of the test compound is determined by comparing the flourescence obtained in absence of compound to that obtained in the presence of compound.

[2] = system: HCMV recombinant mutant virus whose genome contains the prokaryotic beta-glucuronidase gene; test: microbe, parasite or virus in culture; assay type: cell-based, human cytomegalovirus; details: Human betaherpesvirus 5, Fibroblast
Description: Microtiter plate assay. Ninety-six well plate cultures of human foreskin fibroblasts are infected in the presence of inhibitor compound with a HCMV recombinant mutant virus whose genome contains the prokaryotic beta-glucuronidase gene (Jefferson, R. A., S. M. Burgess, and D. Hirsh. 1986. Beta-glucuronidase from Escherichia coli as a gene fusion marker. Proc. Natl. Acad. Sci. USA 83:8447-8451) whose expression is controlled by a viral promoter. An example of such a virus is RV145 (Jones, T. R., V. P. Muzithras, and Y. Gluzman. 1991. Replacement mutagenesis of the human cytomegalovirus genome: US10 and US11 gene products are nonessential. J. Virol. 65:5860-5872). Since it is under the control of a viral promoter, beta-glucuronidase expression is an indirect indicator of growth and replication of HCMV in this assay. At 96 hours post-infection, the infected cell lysates are prepared (using 50mM sodium phosphate [pH7.0] containing 0.1% Triton X-100 and 0.1% sarkosyl) and assayed for beta-glucuronidase activity using a substrate for the enzyme which when cleaved yields either a product which can be measured colorimetrically in a spectrophotometer or fluorescently in a microfluorimeter. Examples of such substrates are p-nitrophenyl-beta-D-glucuronide and methylumbelliferylglucuronide, respectively. The presence of an antiviral compound is indicated by the reduced expression of the HCMV genome resident beta-glucuronidase gene, compared to the absence of inhibitor. […] Data from this assay generated using varying amounts of inhibitor compound is also used to estimate the IC50 of an inhibitor compound.

[3] = system: VZV strain Ellen; test: VZV antiviral (ELISA) assay; assay type: cell-based; details: read-out: IC50 (ug/ml) VZV
Protocol: For the generation of stock VZV to be used in the assay, VZV strain Ellen (ATCC #VR-1367) is used to infect human foreskin fibroblast (HFF) cells at low multiplicity (less than 0.1) and incubated overnight at 37°C in 5% CO2. After the overnight incubation, the mixture of uninfected and VZV-infected HFF infected cells are then harvested and added to each well of 96-well plates (3.5x10^4 cells in 100 µl DMEM supplemented with 2% FBS) which contain test compound or the reference standard drug control (in 100µl DMEM supplemented with 2% FBS per well). These cells are incubated for three days at 37°C in 5% CO2, then fixed for ELISA assay. The primary antibody is murine anti-VZV glycoprotein II monoclonal antibody (Applied Biosystems, Inc. #13-145-100) and the secondary antibody is goat anti-mouse IgG linked to β-galactosidase. Thus the extent of viral replication is determined by assessing β-galactosidase activity by quantifying the generation of the 4-methyl umbelliferone fluorescent cleavage product after addition of the methyl umbelliferyl-β-D-galactoside (Sigma #M1633) substrate on a microfluorimeter (365nm for excitation and 450nm for emission). Antiviral activity (IC50) of the test compound is determined by comparing the flourescence obtained in absence of compound to that obtained in the presence of compound.

[4] = read-out: IC50 ug/ml HCMV, HCMV, human foreskin fibroblasts

Row | SMILES | IC50 ([1]; Vero) [µg/mL] | IC50 [2, 4] [µg/mL] | other results
1 | CN(C)c1cc(CCNC(=S)Nc2ccc(NC(=O)c3ccccc3F)cc2)cc(C(F)(F)F)c1 [Example 653, N-(4-{3-[2-(3-Dimethylamino-5-trifluoromethyl-phenyl)-ethyl]-thioureido}-phenyl)-2-fluoro-benzamide] | > 10 | > 0.5 | 
2 | O=C(Nc1ccc(NC(=S)NCCSc2ccccc2)cc1)c1ccccc1F [Example 656, 2-Fluoro-N-{4-[3-(2-phenylsulfanyl-ethyl)-thioureido]-phenyl}-benzamide] | 5 (≈ 11.7 µM) | > 0.5 | 
3 | O=C(Nc1ccc(NC(=S)NCc2cccc(I)c2)cc1)c1ccccc1F [Example 661, 2-Fluoro-N-{4-[3-(3-iodo-benzyl)-thioureido]-phenyl}-benzamide] |  |  | IC50 ([1]; HSV- I, Vero cells, ELISA): > 10 µg/mL; IC50 ([2]; read-out: IC50 ug/ml HCMV): > 0.5 µg/mL
4 | O=C(Nc1ccc(NC(=S)NCCOc2cc(Cl)cc(Cl)c2)cc1)c1ccccc1F [Example 664, N-(4-{3-[2-(3,5-Dichloro-phenoxy)-ethyl]-thioureido}-phenyl)-2-fluoro-benzamide] | 10 (≈ 20.9 µM) | > 0.5 | 
5 | O=C(Nc1ccc(NC(=S)NCCOc2cccc(Cl)c2)cc1)c1ccccc1F [Example 666, N-(4-{3-[2-(3-Chloro-phenoxy)-ethyl]-thioureido}-phenyl)-2-fluoro-benzamide] | 10 (≈ 22.5 µM) | > 0.5 | 
6 | O=C(Nc1ccc(NC(=S)NCc2cc(C(F)(F)F)ccc2F)cc1)c1ccccc1F [Example 669, 2-Fluoro-N-{4-[3-(2-fluoro-5-trifluoromethyl-benzyl)-thioureido]-phenyl}-benzamide] |  |  | IC50 ([1]; HSV- I, Vero cells, ELISA): > 10 µg/mL; IC50 ([2]; read-out: IC50 ug/ml HCMV): > 0.5 µg/mL
7 | O=C(Nc1ccc(NC(=S)NCc2ccc(F)c(F)c2)cc1)c1ccccc1F [Example 672, N-{4-[3-(3,4-Difluoro-benzyl)-thioureido]-phenyl}-2-fluoro-benzamide] |  |  | IC50 ([1]; HSV- I, Vero cells, ELISA): > 10 µg/mL; IC50 ([2]; read-out: IC50 ug/ml HCMV): > 0.5 µg/mL
8 | Cc1cc(CCNC(=S)Nc2ccc(NC(=O)c3ccccc3F)cc2)ccc1N(C)C [Example 673, N-(4-{3-[2-(4-Dimethylamino-3-methyl-phenyl)-ethyl]-thioureido}-phenyl)-2-fluoro-benzamide] | 7 (≈ 15.5 µM) | > 0.5 | 
9 | O=C(Nc1ccc(NC(=S)NCc2ccc(F)c(Cl)c2)cc1)c1ccccc1F [Example 677, N-{4-[3-(3-Chloro-4-fluoro-benzyl)-thioureido]-phenyl}-2-fluoro-benzamide] | > 10 | > 0.5 | 
10 | O=C(Nc1ccc(NC(=S)NCCSc2cccc(Br)c2)cc1)c1ccccc1F [Example 680, N-(4-{3-[2-(3-Bromo-phenylsulfanyl)-ethyl]-thioureido}-phenyl)-2-fluoro-benzamide] | > 10 | > 0.5 | 
11 | CN1CCN(c2ccc(CNC(=S)Nc3ccc(NC(=O)c4ccccc4F)cc3)cc2C(F)(F)F)CC1 [Example 687, 2-Fluoro-N-(4-{3-[4-(4-methyl-piperazin-1-yl)-3-trifluoromethyl-benzyl]-thioureido}-phenyl)-benzamide] | 1.2 (≈ 2.2 µM) | > 0.5 | 
12 | O=C(Nc1ccc(NC(=S)NCCOc2ccc(Br)cc2)cc1)c1ccccc1F [Example 695, N-(4-{3-[2-(4-Bromo-phenoxy)-ethyl]-thioureido}-phenyl)-2-fluoro-benzamide] | > 10 | > 3 | 
13 | O=C(Nc1ccc(NC(=S)NCCOc2ccc(I)cc2)cc1)c1ccccc1F [Example 696, 2-Fluoro-N-(4-{3-[2-(4-iodo-phenoxy)-ethyl]-thioureido}-phenyl)-benzamide] |  |  | IC50 ([1]; HSV- I, Vero cells, ELISA): 10 µg/mL (≈ 18.7 µM); IC50 ([2]; read-out: IC50 ug/ml HCMV): > 3 µg/mL
14 | O=C(Nc1ccc(NC(=S)NCCc2ccc(Cl)c(Cl)c2)cc1)c1ccccc1F [Example 719, N-(4-{3-[2-(3,4-Dichloro-phenyl)-ethyl]-thioureido}-phenyl)-2-fluoro-benzamide] | > 10 | > 0.5 | 
15 | O=C(Nc1ccc(NC(=S)NCCc2ccccc2F)cc1)c1ccccc1F [Example 721, 2-Fluoro-N-(4-{3-[2-(2-fluoro-phenyl)-ethyl]-thioureido}-phenyl)-benzamide] |  |  | IC50 ([1]; HSV- I, Vero cells, ELISA): > 10 µg/mL
16 | CC(C)(C)c1ccc(CNC(=S)Nc2ccc(NC(=O)c3ccccc3F)cc2)cc1 [Example 724, N-{4-[3-(4-tert-Butyl-benzyl)-thioureido]-phenyl}-2-fluoro-benzamide] | > 10 |  | 
17 | Cc1cc(C)cc(CNC(=S)Nc2ccc(NC(=O)c3ccccc3F)cc2)c1 [Example 725, N-{4-[3-(3,5-Dimethyl-benzyl)-thioureido]-phenyl}-2-fluoro-benzamide] | > 10 |  | 
18 | CC(C)(NC(=S)Nc1ccc(NC(=O)c2ccccc2F)cc1)c1ccccc1 [Example 727, 2-Fluoro-N-{4-[3-(1-methyl-1-phenyl-ethyl)-thioureido]-phenyl}-benzamide] | > 10 |  | 
19 | COc1ccccc1C(=O)Nc1ccc(NC(=S)NC(C)c2ccc(F)cc2)cc1 (centres unmarked) [Example 752, N-(4-{3-(1-(4-Fluoro-phenyl)-ethyl]-thioureido}-phenyl)-2-methoxy-benzamide] | > 10 | > 0.5 | 
20 | CC(NC(=S)Nc1ccc(NC(=O)c2ccc(N(C)C)cc2)cc1)c1ccc(F)cc1 (centres unmarked) [Example 765, 4-Dimethylamino-N-(4-{3-[1-(4-fluoro-phenyl)-ethyl]-thioureido}-phenyl)-benzamide] | 10 (≈ 22.9 µM) | 2.3 (≈ 5.27 µM) | 
21 | CCC(NC(=S)Nc1ccc(NC(=O)c2ccccc2F)cc1)c1ccc(F)cc1 (centres unmarked) [Example 771, 2-Fluoro-N-(4-{3-[1-(4-fluoro-phenyl)-propyl]-thioureido}-phenyl)-benzamide] | > 10 | 0.4 (≈ 0.94 µM) | 
22 | O=C(Nc1ccc(NC(=S)NC(c2ccccc2)c2ccc(F)cc2)cc1)c1ccccc1F (centres unmarked) [Example 772, 2-Fluoro-N-(4-{3-[(4-fluoro-phenyl)-phenyl-methyl]-thioureido}-phenyl)-benzamide] | > 10 | 0.35 (≈ 0.739 µM) | 
23 | O=C(Nc1ccc(NC(=S)Nc2cccc(Cl)c2Cl)cc1)c1ccccc1F [Example 927, N-{4-[3-(2,3-Dichloro-phenyl)-thioureido]-phenyl}-2-fluoro-benzamide] | 5 (≈ 11.5 µM) | 2 (≈ 4.6 µM) | 
24 | O=C(Nc1ccc(NC(=S)Nc2cccc(Cl)c2)cc1)c1ccccc1F [Example 944, N-{4-[3-(3-Chloro-phenyl)-thioureido]-phenyl}-2-fluoro-benzamide] | > 10 | 3 (≈ 7.5 µM) | 
25 | O=C(Nc1ccc(NC(=S)Nc2ccc(Cl)cc2)cc1)c1ccccc1F [Example 946, N-{4-[3-(4-Chloro-phenyl)-thioureido]-phenyl}-2-fluoro-benzamide] | > 10 | > 10 | 
26 | CC(NC(=S)Nc1ccc(NC(=O)c2nccc3ccccc23)cc1)c1ccc(F)cc1 (centres unmarked) [Example 1110, Isoquinoline-1-carboxylic acid (4-{3-[1-(4-fluoro-phenyl)-ethyl]-thioureido}-phenyl)-amide] |  |  | IC50 ([3]; Human alphaherpesvirus 3, VZV strain Ellen, HFF cells, ELISA): 0.05 µg/mL (≈ 0.112 µM); IC50 ([2]; read-out: IC50 ug/ml HCMV): 3.3 µg/mL (≈ 7.42 µM)
27 | C[C@H](NC(=S)Nc1ccc(NC(=O)c2nccc3ccccc23)cc1)c1ccc(C#N)cc1 [Example 1111] |  | > 10 | IC50 ([3]; Human alphaherpesvirus 3, HFF): 0.1 µg/mL (≈ 0.221 µM)
